Data as given in article PMC7473772 (eLife, 2020).
Where “and” joins values, the source holds several entries; their conditions need not be identical. Equal values may be shown once. Read-outs that look alike come from different tables or passages of the source.

Key:
[1] = test system: tbaqp2/tbaqp3 null cells expressing TbAQP2^S131P/S263A; format: cell-based, Trypanosoma brucei brucei
[2] = test system: tbaqp2/tbaqp3 null cells expressing TbAQP2^I190T/W192G; format: cell-based, Trypanosoma brucei brucei
[3] = test system: tbaqp2/tbaqp3 null cells expressing TbAQP2 L118M; experiment: microbe, parasite or virus in culture; format: cell-based, Trypanosoma brucei brucei
[4] = test system: tbaqp2/tbaqp3 null cells expressing TbAQP3; format: cell-based, Trypanosoma brucei brucei
[5] = test system: tbaqp2/tbaqp3 null cells expressing TbAQP3^W102I/R256L; format: cell-based, Trypanosoma brucei brucei
[6] = test system: tbaqp2/tbaqp3 null cells expressing TbAQP3^W102I/R256L/Y250L; format: cell-based, Trypanosoma brucei brucei
tbaqp1-2-3 null cells = experiment: Drug sensitivity assay (resazurin), pentamidine and SHAM; format: cell-based, Trypanosoma brucei brucei; settings: KO AQP1-3
[7] = test system: tbaqp1-2-3 null cells expressing TbAQP2WT; experiment: as above; format: cell-based, Trypanosoma brucei brucei; settings: Trypanosoma brucei, +AQP2 W.T in aqp1-3 triple KO; 3 repeats; read-out: Alamar blue EC50, MEAN
[8] = test system: tbaqp1-2-3 null cells expressing TbAQP2 position 84, 118 and 218 Trp and Met mutants; experiment: as above; format: cell-based, Trypanosoma brucei brucei
T. b. brucei 2T1 = format: cell-based, Trypanosoma brucei brucei
TbAQP2 L118M = TbAQP2 L118M (Trypanosoma brucei brucei, UniProt Q6ZXT3, L118M); experiment: [3H]-pentamidine transport; format: cell-based; settings: AQP2 mutant L118M
Sequence of TbAQP2 L118M (Q6ZXT3 whole entry L118M): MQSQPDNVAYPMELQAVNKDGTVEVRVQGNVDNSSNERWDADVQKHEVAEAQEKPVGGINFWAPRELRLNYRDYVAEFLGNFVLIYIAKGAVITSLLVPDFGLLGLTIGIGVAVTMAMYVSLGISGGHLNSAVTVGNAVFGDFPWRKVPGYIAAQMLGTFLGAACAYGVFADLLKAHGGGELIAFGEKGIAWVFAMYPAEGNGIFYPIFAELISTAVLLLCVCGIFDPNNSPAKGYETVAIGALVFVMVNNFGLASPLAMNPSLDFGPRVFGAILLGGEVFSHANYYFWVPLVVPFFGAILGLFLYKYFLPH

TbAQP3^W102I/R256L = TbAQP3^W102I/R256L (Trypanosoma brucei brucei, UniProt Q6ZXT2, R256L/W102I); experiment: [3H]-pentamidine transport; format: cell-based; settings: AQP3 W102I/R256L; over 30 minutes
Sequence of TbAQP3^W102I/R256L (Q6ZXT2 whole entry W102I/R256L): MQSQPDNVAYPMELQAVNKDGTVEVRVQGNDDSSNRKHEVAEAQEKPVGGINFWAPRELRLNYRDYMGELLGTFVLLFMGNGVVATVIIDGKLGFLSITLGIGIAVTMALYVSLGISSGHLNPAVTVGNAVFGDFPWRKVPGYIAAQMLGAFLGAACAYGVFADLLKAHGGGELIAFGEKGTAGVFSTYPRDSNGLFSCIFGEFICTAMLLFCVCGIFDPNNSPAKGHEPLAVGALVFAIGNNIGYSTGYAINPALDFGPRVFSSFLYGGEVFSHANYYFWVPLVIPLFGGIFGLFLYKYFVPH

CRK12 RNAi cells = experiment: [3H]-pentamidine transport after CRK12 RNAi induction (endocytosis defect); format: cell-based, Trypanosoma brucei
HAPT = settings: cited from earlier work
[9] = Trypanosoma brucei, read-out: Alamar blue EC50, single repeats
[10] = read-out: Alamar blue EC50, single repeats

Compound: N=C(N)c1ccc(OCCCCCOc2ccc(C(=N)N)cc2)cc1 [Pentamidine]
- EC50, percent of AQP2/3 null EC50 [1]: 1.92%
- EC50 as percent of AQP2/3 null EC50, MEAN [2]: 99.52%
- EC50 as percent of AQP2/3 null EC50, single repeats [2]: 131.67% and 89.434% and 77.4635%
- EC50 ([3]; Trypanosoma brucei, read-out: Alamar blue EC50, MEAN): 34.2 nM
- EC50 [3, 9]: 39 nM
- EC50 ([3]; Trypanosoma brucei, read-out: EC50 AVG): 34.2 nM
- EC50 [3, 10]: 39.5 nM and 24.2 nM
- EC50 as percent of AQP2/3 null EC50, MEAN [4]: 105.70%
- EC50 as percent of AQP2/3 null EC50, MEAN [5]: 83.83%
- EC50 as percent of AQP2/3 null EC50, MEAN [6]: 31.94%
- EC50 (tbaqp1-2-3 null cells; [10]): 75.4 nM and 63.9 nM
- EC50 (tbaqp1-2-3 null cells; Trypanosoma brucei, 3 repeats, read-out: Alamar blue EC50, MEAN): 69.3 nM
- EC50 (tbaqp1-2-3 null cells; [9]): 68.7 nM
- EC50 [7]: 1.1 nM
- EC50 ([8]; +L84M in aqp1-3 triple KO, read-out: Alamar blue EC50, single repeats): 0.8 nM and 0.9 nM
- EC50 ([8]; +L84W in aqp1-3 triple KO, read-out: Alamar blue EC50, single repeats): 18.7 nM and 15.3 nM
- EC50 ([8]; +L84W/L118W in aqp1-3 triple KO, read-out: Alamar blue EC50, single repeats): 65.7 nM
- EC50 ([8]; +L118M in aqp1-3 triple KO, read-out: Alamar blue EC50, single repeats): 27.8 nM and 29.4 nM
- EC50 ([8]; +L118W in aqp1-3 triple KO, read-out: Alamar blue EC50, single repeats): 27.1 nM and 25.8 nM
- EC50 ([8]; +L218W in aqp1-3 triple KO, read-out: Alamar blue EC50, single repeats): 3.9 nM and 5.3 nM
- EC50 ([8]; Trypanosoma brucei, +L84M in aqp1-3 triple KO, 3 repeats, read-out: Alamar blue EC50, MEAN): 0.77 nM
- EC50 ([8]; Trypanosoma brucei, +L84M in aqp1-3 triple KO, read-out: Alamar blue EC50, single repeats): 0.65 nM
- EC50 ([8]; Trypanosoma brucei, +L84W in aqp1-3 triple KO, 3 repeats, read-out: Alamar blue EC50, MEAN): 16.1 nM
- EC50 ([8]; Trypanosoma brucei, +L84W in aqp1-3 triple KO, read-out: Alamar blue EC50, single repeats): 14.4 nM
- EC50 ([8]; Trypanosoma brucei, +L84W/L118W in aqp1-3 triple KO, read-out: Alamar blue EC50, single repeats): 53.4 nM
- EC50 ([8]; Trypanosoma brucei, +L118M in aqp1-3 triple KO, 3 repeats, read-out: Alamar blue EC50, MEAN): 28 nM
- EC50 ([8]; Trypanosoma brucei, +L118M in aqp1-3 triple KO, read-out: Alamar blue EC50, single repeats): 26.8 nM
- EC50 ([8]; Trypanosoma brucei, +L118W in aqp1-3 triple KO, 3 repeats, read-out: Alamar blue EC50, MEAN): 26.6 nM
- EC50 ([8]; Trypanosoma brucei, +L118W in aqp1-3 triple KO, read-out: Alamar blue EC50, single repeats): 26.9 nM
- EC50 ([8]; Trypanosoma brucei, +L218M in aqp1-3 triple KO, 3 repeats, read-out: Alamar blue EC50, MEAN): 0.63 nM
- EC50 ([8]; Trypanosoma brucei, +L218W in aqp1-3 triple KO, 3 repeats, read-out: Alamar blue EC50, MEAN): 4.39 nM
- EC50 ([8]; Trypanosoma brucei, +L218W in aqp1-3 triple KO, read-out: Alamar blue EC50, single repeats): 4 nM
- Transport rate AVG (T. b. brucei 2T1): 21.86
- Pentamidine transport rate AVG (TbAQP2 L118M; n=3): 0.0006601 pmol/10E7 cells/s
- Pentamidine transport rate (TbAQP2 L118M; single experiments): 0.000589 pmol/10E7 cells/s and 0.000736 pmol/10E7 cells/s and 0.0006552 pmol/10E7 cells/s
- Pentamidine transport rate (TbAQP3^W102I/R256L): 1.51E-04 pmol/10E7 cells/s
- pentamidine uptake rate, CRK+tet, AVERAGE (CRK12 RNAi cells; CRK12 RNAi induced (+tet), 4 experiments): 0.00587 pmol/1E7 cells/s-1
- pentamidine uptake rate, CRK+tet (CRK12 RNAi cells; CRK12 RNAi induced (+tet), single experiments): 0.00804 pmol/1E7 cells/s-1 and 0.004193 pmol/1E7 cells/s-1 and 0.006636 pmol/1E7 cells/s-1 and 0.004619 pmol/1E7 cells/s-1
- pentamidine uptake rate, CRK-tet, AVERAGE (CRK12 RNAi cells; CRK12 RNAi not induced (-tet), 4 experiments): 0.00656 pmol/1E7 cells/s-1
- Vmax (HAPT): 0.0044 ± 0.0004 pmol(10^7 cells)^−1 s^−1
- Vmax for HAPT-mediated pentamidine uptake (HAPT): 9.5 × 10^5 molecules/cell/h and 8.5 × 10^6 molecules/cell/h
